According to article PMC7617869, “Molecular glues that inhibit deubiquitylase activity and inflammatory signaling” (Nature Structural & Molecular Biology, 2025):
Several values for one entry are separate records, joined by “and”; a condition that tells them apart may be missing. Identical values can stand only once.

What was measured:
BRISC BRCC45 R137A+F140A = BRISC BRCC45 R137A+F140A (Homo sapiens, UniProt P46736+Q15018+Q9NXR7, F140A/R137A); assay: BRISC mutant IQF assay: BRCC45 R137A+F140A; assay type: biochemical
Procedure: (§1) IQF assays were performed in DUB reaction buffer containing 50 mM HEPES–NaOH pH 7.0, 100 mM NaCl, 0.1 mg ml^−1 BSA, 1 mM DTT and 0.03% v/v Brij-35. […] The final concentration of BRISC WT, all BRISC mutants, HsBRISCΔLoop, MmBRISC and DrBRISCΔNΔC was 1 nM. Other enzymes were tested at the following concentrations: 5 nM ARISC (FL), 10 nM CfBRISCΔNΔC, 250 nM AMSH* (ref. [43]), 500 nM USP2 and 1 μM trypsin (Sigma, 9002-07-7). For Michaelis–Menten experiments, 1 nM BRISC with 0–1 μM IQF K63-linked diubiquitin substrate was used. Michaelis–Menten analyses and Lineweaver–Burk plots were calculated using GraphPad Prism (version 9.0).
(§2) To assess enzymatic activity, BRISC complexes were diluted to concentrations between 1 nM and 50 nM. […] DUB activity was measured using IQF K63-linked diubiquitin (LifeSensors, DU6303) at 50 nM. Cleaved diubiquitin was monitored by measuring fluorescence intensity (excitation, 544 nm; emission, 575 nm; dichroic mirror, 560 nm). Fluorescence intensity was measured every minute for 30 min at 30 °C. Fluorescence intensity units were plotted against time to generate a linear reaction progress curve, where the initial velocity (V0) corresponds to the gradient of the curve (typically achieved within 15 min). IC50 values were calculated using the GraphPad Prism (version 9.0) built-in dose–response equation for inhibitor concentration versus response (variable slope).

BRISC Abraxas2 T140A = BRISC Abraxas2 T140A (Homo sapiens, UniProt P46736+Q15018+Q9NXR7, T140A); assay: BRISC mutant IQF assay: Abraxas2 T140A; assay type: biochemical
Procedure: as §1
(§3) To assess enzymatic activity, BRISC complexes were diluted to concentrations between 1 nM and 50 nM. […] Then, 20-μl enzyme reactions were carried out in 384-well black flat-bottom low-flange plates (Corning, 35373). DUB activity was measured using IQF K63-linked diubiquitin (LifeSensors, DU6303) at 50 nM. Cleaved diubiquitin was monitored by measuring fluorescence intensity (excitation, 544 nm; emission, 575 nm; dichroic mirror, 560 nm). Fluorescence intensity was measured every minute for 30 min at 30 °C. Fluorescence intensity units were plotted against time to generate a linear reaction progress curve, where the initial velocity (V0) corresponds to the gradient of the curve (typically achieved within 15 min). IC50 values were calculated using the GraphPad Prism (version 9.0) built-in dose–response equation for inhibitor concentration versus response (variable slope).

BRISC BRCC36 R167A+L169A = BRISC BRCC36 R167A+L169A (Homo sapiens, UniProt P46736+Q15018+Q9NXR7, L169A/R167A); assay: BRISC mutant IQF assay: BRCC36 R167A+L169A; assay type: biochemical; conditions: read-out: Normalised V0
Excerpt: Supplement 41594_2025_1517_MOESM5_ESM.xlsx, sheet "Fig. 4c" | column: Normalised V0

BRISC BRCC45 D248R = BRISC BRCC45 D248R (Homo sapiens, UniProt P46736+Q15018+Q9NXR7, D248R); assay: BRISC mutant IQF assay: BRCC45 D248R; assay type: biochemical
Procedure: as §1, §3

BRISC BRCC36 W130A = BRISC BRCC36 W130A (Homo sapiens, UniProt P46736+Q15018+Q9NXR7, W130A); assay: BRISC mutant IQF assay: BRCC36 W130A; assay type: biochemical
Procedure: as §1, §3

BRISC Abraxas2 I133W = BRISC Abraxas2 I133W (Homo sapiens, UniProt P46736+Q15018+Q9NXR7, I133W); assay: BRISC mutant IQF assay: Abraxas2 I133W; assay type: biochemical
Procedure: as §1, §2

BRISC BRCC36 L169A = BRISC BRCC36 L169A (Homo sapiens, UniProt P46736+Q15018+Q9NXR7, L169A); assay: BRISC mutant IQF assay: BRCC36 L169A; assay type: biochemical
Procedure: as §1, §3

CfBRISCΔNΔC = CfBRISCΔNΔC IQF DUB activity assay; assay type: biochemical, ant (Camponotus floridanus); conditions: for Normalised V0: CfBRISCΔNΔC
Procedure: as §1, §3

DrBRISCΔNΔC = DrBRISCΔNΔC IQF DUB activity assay; assay type: biochemical, zebrafish (Danio rerio)
Procedure: as §1, §3

[1] = FX-171-C 0.035 μM, read-out: Normalised V0
[2] = FX-171-C 0.0035 μM, read-out: Normalised V0
[3] = FX-171-C 50 μM, read-out: Normalised V0
[4] = FX-171-C 100 μM, read-out: Normalised V0

Work on `O=C(NC1C2CNCC21)c1nn(C(=O)c2c(Cl)cccc2Cl)cc1NC(=O)c1c(Cl)cccc1Cl` (stereo not drawn) [FX-171-C] yielded an IC50 (BRISC BRCC45 R137A+F140A) of 52 µM, a remaining activity at 0.035 µM (BRISC BRCC45 R137A+F140A; [1]) of 79.9% and an IC50 (BRISC Abraxas2 T140A; Abraxas 2 T140A) of 5 µM. The “inhibitor sensitivity vs BRISC WT” value (BRISC Abraxas2 T140A; Abraxas 2 T140A) was “IC50 tenfold higher than BRISC WT”, the remaining activity at 0.0035 µM (BRISC Abraxas2 T140A; Abraxas2 T140A, FX-171-C 0.0035 μM, read-out: Normalised V0) was 89.1% and the remaining activity at 0.35 µM (BRISC Abraxas2 T140A; Abraxas2 T140A, FX-171-C 0.35 μM, read-out: Normalised V0) was 99.5%. The remaining activity at 3.1 µM (BRISC Abraxas2 T140A; Abraxas2 T140A, FX-171-C 3.1 μM, read-out: Normalised V0) was 53.4%, the remaining activity at 0.35 µM (BRISC BRCC36 R167A+L169A; FX-171-C 0.35 μM) was 98.6% and the remaining activity at 25 µM (BRISC BRCC36 R167A+L169A; FX-171-C 25 μM) was 85.6%. The IC50 (BRISC BRCC45 D248R) was over 100 µM, the “inhibitor sensitivity vs BRISC WT” value (BRISC BRCC45 D248R) was “reduced sensitivity to inhibition” and the remaining activity at 0.0035 µM (BRISC BRCC45 D248R; [2]) was 91.7%. It also gave a remaining activity at 0.035 µM (BRISC BRCC45 D248R; [1]) of 97.4%, a remaining activity at 0.35 µM (BRISC BRCC45 D248R; FX-171-C 0.35 μM, read-out: Normalised V0) of 91.7% and an IC50 (BRISC BRCC36 W130A) of 23 µM. The remaining activity at 0.0035 µM (BRISC BRCC36 W130A; [2]) was 95.2%, the remaining activity at 0.035 µM (BRISC BRCC36 W130A; [1]) was 96.5% and the remaining activity at 12.5 µM (BRISC BRCC36 W130A; FX-171-C 12.5 μM, read-out: Normalised V0) was 67.5%. For the same molecule, the remaining activity at 50 µM (BRISC BRCC36 W130A; [3]) was 40.4%, the remaining activity at 100 µM (BRISC BRCC36 W130A; [4]) was 21% and the IC50 (BRISC Abraxas2 I133W) was 2.3 µM. For the same molecule, the “inhibitor sensitivity vs BRISC WT” value (BRISC Abraxas2 I133W) was “moderate to little effect on inhibitor sensitivity”, the IC50 (BRISC BRCC36 L169A) was 33 µM and the “reduction of inhibition over wild-type complex” value (BRISC BRCC36 L169A) was over 100 fold. It also gave a remaining activity at 0.035 µM (BRISC BRCC36 L169A; [1]) of 94.7%, a remaining activity at 3.1 µM (BRISC BRCC36 L169A; FX-171-C 3.1 μM, read-out: Normalised V0) of 98.4% and a remaining activity at 50 µM (BRISC BRCC36 L169A; [3]) of 40.6%. For the same molecule, the remaining activity at 100 µM (BRISC BRCC36 L169A; [4]) was 22.1%, the remaining activity at 200 µM (BRISC BRCC36 L169A; FX-171-C 200 μM, read-out: Normalised V0) was 10.5% and the “inhibition of ant BRISC” value (CfBRISCΔNΔC) was “no inhibition”. For the same molecule, the “Normalised V0” value (CfBRISCΔNΔC; FX-171-C 0.013 μM) was 0.8962 and 0.9603 and 0.9451 and 1.01 and 0.9065 and 0.9614, the “Normalised V0” value (CfBRISCΔNΔC; FX-171-C 0.02 μM) was 0.8823 and 0.9398 and 0.9125 and the “Normalised V0” value (CfBRISCΔNΔC; FX-171-C 0.0399999 μM) was 0.8374 and 1.085 and 0.922. The “Normalised V0” value (CfBRISCΔNΔC; FX-171-C 0.0599997 μM) was 0.96 and 0.9545 and 0.8432, the “Normalised V0” value (CfBRISCΔNΔC; FX-171-C 0.0799994 μM) was 0.96 and 1.021 and 0.8317 and the “Normalised V0” value (CfBRISCΔNΔC; FX-171-C 0.119998 μM) was 0.912 and 0.9545 and 0.6902. The “Normalised V0” value (CfBRISCΔNΔC; FX-171-C 0.199996 μM) was 0.9393 and 1.029 and 0.809, the “Normalised V0” value (CfBRISCΔNΔC; FX-171-C 0.499975 μM) was 0.8932 and 0.9706 and 1.16 and the “Normalised V0” value (CfBRISCΔNΔC; FX-171-C 0.799937 μM) was 0.8483 and 0.9187 and 0.8448. The “Normalised V0” value (CfBRISCΔNΔC; FX-171-C 1.25984 μM) was 0.9211 and 1.122 and 1.015, the “Normalised V0” value (CfBRISCΔNΔC; FX-171-C 1.9996 μM) was 0.9132 and 0.9123 and 0.84 and the “Normalised V0” value (CfBRISCΔNΔC; FX-171-C 3.159 μM) was 0.9417 and 1.133 and 0.9365. For the same molecule, the “Normalised V0” value (CfBRISCΔNΔC; FX-171-C 5.19739 μM) was 0.9697 and 1.085 and 0.6282, the “Normalised V0” value (CfBRISCΔNΔC; FX-171-C 7.99364 μM) was 0.932 and 1.064 and 1.2693 and the “Normalised V0” value (CfBRISCΔNΔC; FX-171-C 12.7839 μM) was 1.03 and 1.045 and 0.7909. The “Normalised V0” value (CfBRISCΔNΔC; FX-171-C 19.96 μM) was 1.048 and 1.129 and 1.039, the “Normalised V0” value (CfBRISCΔNΔC; FX-171-C 31.4999 μM) was 0.9199 and 1.137 and 0.9151 and the “Normalised V0” value (CfBRISCΔNΔC; FX-171-C 50.147 μM) was 0.8823 and 1.1 and 0.9082. The “Normalised V0” value (CfBRISCΔNΔC; FX-171-C 79.7601 μM) was 0.9478 and 0.9802 and 1.294, the “Normalised V0” value (CfBRISCΔNΔC; FX-171-C 125.99 μM) was 0.8064 and 1.008 and 0.9331 and the “Normalised V0” value (CfBRISCΔNΔC; FX-171-C 199.922 μM) was 1.048 and 0.9667 and 0.9357. The “Normalised V0” value (DrBRISCΔNΔC; FX-171-C 0.013 μM) was 0.983 and 1.045 and 1.007 and 1.076 and 0.9046 and 1, the “Normalised V0” value (DrBRISCΔNΔC; FX-171-C 0.02 μM) was 0.9073 and 0.9513 and 0.9154 and the “Normalised V0” value (DrBRISCΔNΔC; FX-171-C 0.0399999 μM) was 0.972 and 1.086 and 0.9939. The “Normalised V0” value (DrBRISCΔNΔC; FX-171-C 0.0599997 μM) was 1 and 1.042 and 0.951, the “Normalised V0” value (DrBRISCΔNΔC; FX-171-C 0.0799994 μM) was 1.257 and 1.072 and 1.014 and the “Normalised V0” value (DrBRISCΔNΔC; FX-171-C 0.119998 μM) was 0.9667 and 1.1184 and 0.9769. For the same molecule, the “Normalised V0” value (DrBRISCΔNΔC; FX-171-C 0.199996 μM) was 1.0445 and 1.023 and 0.9962, the “Normalised V0” value (DrBRISCΔNΔC; FX-171-C 0.499975 μM) was 0.9714 and 1.052 and 0.9507 and the “Normalised V0” value (DrBRISCΔNΔC; FX-171-C 0.799937 μM) was 1.009 and 0.9333 and 0.8977. For the same molecule, the “Normalised V0” value (DrBRISCΔNΔC; FX-171-C 1.25984 μM) was 0.9862 and 1.093 and 0.9451, the “Normalised V0” value (DrBRISCΔNΔC; FX-171-C 1.9996 μM) was 0.9182 and 0.9951 and 0.8213 and the “Normalised V0” value (DrBRISCΔNΔC; FX-171-C 3.159 μM) was 1.042 and 0.9998 and 0.8593. The “Normalised V0” value (DrBRISCΔNΔC; FX-171-C 5.19739 μM) was 0.6448 and 0.9953 and 0.847, the “Normalised V0” value (DrBRISCΔNΔC; FX-171-C 7.99364 μM) was 0.9454 and 0.9127 and 0.9517 and the “Normalised V0” value (DrBRISCΔNΔC; FX-171-C 12.7839 μM) was 0.9358 and 1.024 and 0.8831. The “Normalised V0” value (DrBRISCΔNΔC; FX-171-C 19.96 μM) was 0.6505 and 0.8985 and 0.8711, the “Normalised V0” value (DrBRISCΔNΔC; FX-171-C 31.4999 μM) was 0.752 and 0.7818 and 0.7739 and the “Normalised V0” value (DrBRISCΔNΔC; FX-171-C 50.147 μM) was 0.6953 and 0.6278 and 0.7138. The “Normalised V0” value (DrBRISCΔNΔC; FX-171-C 79.7601 μM) was 0.6671 and 0.5066 and 0.3963, the “Normalised V0” value (DrBRISCΔNΔC; FX-171-C 125.99 μM) was 0.4739 and 0.3651 and 0.4262 and the “Normalised V0” value (DrBRISCΔNΔC; FX-171-C 199.922 μM) was 0.313 and 0.2853 and 0.3043.
